Results reported in patent US10399945B2, “Tetrahydronaphthyl urea derivative” (MOCHIDA PHARMACEUTICAL CO., LTD., priority 2017, dated 2019).

Molecular target: Human TrkA Protein (Homo sapiens (Human), UniProt P04629)
Assay: Evaluation of Binding Activity for Human TrkA Protein (TrkA LanthaScreen Eu Kinase Binding Assay)
Details: TrkA enzyme, Kinase Tracer 236, TR-FRET, 60 minutes at room temperature
Procedure: (Pharmacological Experimental Example 1): Evaluation of Binding Activity for Human TrkA Protein
Measurement was carried out using TrkA LanthaScreen (registered trademark) Eu Kinase Binding Assay (ThermoFisher SCIENTIFIC). To a 384 well plate (Corning), 2.5 μL of the test compound having various concentrations and diluted with Kinase buffer (ThermoFisher SCIENTIFIC) and 2.5 μL of 15 nM TrkA enzyme (ThermoFisher SCIENTIFIC) were added. Moreover, […] Eu-anti-His Tag antibody (ThermoFisher SCIENTIFIC) and 5 μL of 30 nM Kinase (registered trademark) Tracer 236 (ThermoFisher SCIENTIFIC) were added, followed by reaction at room temperature for 60 minutes. After the reaction, the fluorescence intensity of Europium (Emission wavelength 615 nm) and TR-FRET (Emission wavelength 665 nm) with an excitation wavelength of 340 nm were measured with EnVision 2100 (PerkinElmer) to calculate the fluorescence ratio as the amount of the test compound and the TrkA enzyme bonded. The inhibitory activity (IC50 value) of each test compound was calculated with the fluorescence ratio of the well to which a solvent was added instead of the test compound being 0% and the fluorescence ratio of the well without addition of the TrkA protein being 100%.
In Table 1, […] mean Compounds 1 to 62 synthesized in accordance with Examples 1 to 62 described later.

Chain of Human TrkA Protein (P04629 33-796): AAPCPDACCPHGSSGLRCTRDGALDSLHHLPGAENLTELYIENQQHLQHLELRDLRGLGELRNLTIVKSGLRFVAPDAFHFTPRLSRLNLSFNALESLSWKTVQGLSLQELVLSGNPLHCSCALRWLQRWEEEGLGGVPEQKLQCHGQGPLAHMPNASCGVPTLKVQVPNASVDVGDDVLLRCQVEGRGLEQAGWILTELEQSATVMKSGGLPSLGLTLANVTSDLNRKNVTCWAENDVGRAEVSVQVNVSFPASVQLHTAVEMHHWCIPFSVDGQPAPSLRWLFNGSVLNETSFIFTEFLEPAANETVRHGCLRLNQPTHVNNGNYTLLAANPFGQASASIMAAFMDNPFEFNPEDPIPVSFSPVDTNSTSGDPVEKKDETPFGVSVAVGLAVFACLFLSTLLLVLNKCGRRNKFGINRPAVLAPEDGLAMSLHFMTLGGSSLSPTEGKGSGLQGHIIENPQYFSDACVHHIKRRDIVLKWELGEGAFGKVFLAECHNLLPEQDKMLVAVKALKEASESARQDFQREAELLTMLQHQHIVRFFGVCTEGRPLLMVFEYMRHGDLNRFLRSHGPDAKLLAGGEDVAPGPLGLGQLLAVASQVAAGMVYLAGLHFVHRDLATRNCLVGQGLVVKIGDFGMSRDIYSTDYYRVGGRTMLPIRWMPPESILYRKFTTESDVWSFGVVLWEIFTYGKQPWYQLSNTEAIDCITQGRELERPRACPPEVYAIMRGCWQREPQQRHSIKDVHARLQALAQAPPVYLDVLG

Row | Compound | IC50 [µM]
1 | Cc1cnc(-c2ccccc2)c(NC(=O)N[C@@H]2c3cc(F)c(F)cc3C(C)(C)C[C@H]2O)c1 (racemic) [Compound 37, rac-1-((1R,2R)-6,7-difluoro-2-hydroxy-4,4-dimethyl-1,2,3,4-tetrahydronaphthalen-1-yl)-3-(5-methyl-2-phenylpyridin-3-yl)urea] | ≤ 0.05
2 | Cc1cnc(-c2ccccc2)c(NC(=O)N[C@@H]2c3cc(F)c(F)cc3C(C)(C)C[C@H]2O)c1 (racemic) [Compound 37a] | ≤ 0.05
3 | Cc1cc(NC(=O)N[C@@H]2c3cc(F)c(F)cc3C(C)(C)C[C@H]2O)c(-c2ccccc2)nc1C(N)=O (racemic) [Compound 40, rac-5-(3-((1R,2R)-6,7-difluoro-2-hydroxy-4,4-dimethyl-1,2,3,4-tetrahydronaphthalen-1-yl)ureido)-3-methyl-6-phenylpicolinamide] | ≤ 0.05
4 | Cc1nnc(CNC(=O)c2nc(-c3ccccc3)c(NC(=O)N[C@@H]3c4cc(F)c(F)cc4C(C)(C)C[C@H]3O)cc2C)o1 (racemic) [Compound 41a] | ≤ 0.05
5 | Cc1cc(NC(=O)N[C@@H]2c3cc(F)c(F)cc3C(C)(C)C[C@H]2O)c(-c2ccccc2)nc1CO (racemic) [Compound 43, rac-1-((1R,2R)-6,7-difluoro-2-hydroxy-4,4-dimethyl-1,2,3,4-tetrahydronaphthalen-1-yl)-3-(6-(hydroxymethyl)-5-methyl-2-phenylpyridin-3-yl)urea] | ≤ 0.05
6 | Cc1cc(NC(=O)N[C@@H]2c3cc(F)c(F)cc3C(C)(C)C[C@H]2O)c(-c2ccccc2)nc1-c1ccc(CO)cc1 (racemic) [Compound 45, rac-1-((1R,2R)-6,7-difluoro-2-hydroxy-4,4-dimethyl-1,2,3,4-tetrahydronaphthalen-1-yl)-3-(6-(4-(hydroxymethyl)phenyl)-5-methyl-2-phenylpyridin-3-yl)urea] | ≤ 0.05
7 | Cc1cc(NC(=O)N[C@@H]2c3cc(F)c(F)cc3C(C)(C)C[C@H]2O)c(-c2ccccc2)nc1-c1cccc(C#N)c1 (racemic) [Compound 47, rac-1-(6-(3-cyanophenyl)-5-methyl-2-phenylpyridin-3-yl)-3-((1R,2R)-6,7-difluoro-2-hydroxy-4,4-dimethyl-1,2,3,4-tetrahydronaphthalen-1-yl)urea] | ≤ 0.05
8 | Cc1cc(NC(=O)N[C@@H]2c3cc(F)c(F)cc3C(C)(C)C[C@H]2O)c(-c2ccccc2)nc1-c1ccn(C)n1 (racemic) [Compound 48, rac-1-((1R,2R)-6,7-difluoro-2-hydroxy-4,4-dimethyl-1,2,3,4-tetrahydronaphthalen-1-yl)-3-(5-methyl-6-(1-methyl-1H-pyrazol-3-yl)-2-phenylpyridin-3-yl)urea] | ≤ 0.05
9 | Cc1cc(NC(=O)N[C@@H]2c3cc(F)c(F)cc3C(C)(C)C[C@H]2O)c(-c2ccccc2)nc1-c1ccn(C)n1 (racemic) [Compound 48a] | ≤ 0.05
10 | Cc1cc(-c2nc(-c3ccccc3)c(NC(=O)N[C@@H]3c4cc(F)c(F)cc4C(C)(C)C[C@H]3O)cc2C)cnn1 (racemic) [Compound 49, rac-1-((1R,2R)-6,7-difluoro-2-hydroxy-4,4-dimethyl-1,2,3,4-tetrahydronaphthalen-1-yl)-3-(5-methyl-6-(6-methylpyridazin-4-yl)-2-phenylpyridin-3-yl)urea] | ≤ 0.05
11 | Cc1cc(NC(=O)N[C@@H]2c3cc(F)c(F)cc3C(C)(C)C[C@H]2O)c(-c2ccccc2)nc1-c1cnn(C)c1 (racemic) [Compound 51, rac-1-((1R,2R)-6,7-difluoro-2-hydroxy-4,4-dimethyl-1,2,3,4-tetrahydronaphthalen-1-yl)-3-(5-methyl-6-(1-methyl-1H-pyrazol-4-yl)-2-phenylpyridin-3-yl)urea] | ≤ 0.05
12 | Cc1cc(NC(=O)N[C@@H]2c3cc(F)c(F)cc3C(C)(C)C[C@H]2O)c(-c2ccccc2)nc1-c1ccc(C#N)cc1 (racemic) [Compound 52, rac-1-(6-(4-cyanophenyl)-5-methyl-2-phenylpyridin-3-yl)-3-((1R,2R)-6,7-difluoro-2-hydroxy-4,4-dimethyl-1,2,3,4-tetrahydronaphthalen-1-yl)urea] | ≤ 0.05
13 | Cc1cc(NC(=O)N[C@@H]2c3cc(F)c(F)cc3C(C)(C)C[C@H]2O)c(-c2ccccc2)nc1-c1cnc(C(C)(C)O)nc1 (racemic) [Compound 54, rac-1-((1R,2R)-6,7-difluoro-2-hydroxy-4,4-dimethyl-1,2,3,4-tetrahydronaphthalen-1-yl)-3-(6-(2-(2-hydroxypropan-2-yl)pyrimidin-5-yl)-5-methyl-2-phenylpyridin-3-yl)urea] | ≤ 0.05
14 | Cc1cc(NC(=O)N[C@@H]2c3cc(F)c(F)cc3C(C)(C)C[C@H]2O)c(-c2ccccc2)nc1-c1ccc(CO)nc1 (racemic) [Compound 55, rac-1-((1R,2R)-6,7-difluoro-2-hydroxy-4,4-dimethyl-1,2,3,4-tetrahydronaphthalen-1-yl)-3-(6′-(hydroxymethyl)-3-methyl-6-phenyl-[2,3′-bipyridin]-5-yl)urea] | ≤ 0.05

The remaining lines, values ahead:

Row | IC50 [µM] | Compound
15 | 0.05 to 1 | Cc1ccnc(-c2ccccc2)c1NC(=O)N[C@@H]1c2cc(F)c(F)cc2C(C)(C)C[C@H]1O (racemic) [Compound 38, rac-1-((1R,2R)-6,7-difluoro-2-hydroxy-4,4-dimethyl-1,2,3,4-tetrahydronaphthalen-1-yl)-3-(4-methyl-2-phenylpyridin-3-yl)urea]
16 | ≤ 0.05 | Cc1ccc(NC(=O)N[C@@H]2c3cc(F)c(F)cc3C(C)(C)C[C@H]2O)c(-c2ccccc2)n1 (racemic) [Compound 39, rac-1-((1R,2R)-6,7-difluoro-2-hydroxy-4,4-dimethyl-1,2,3,4-tetrahydronaphthalen-1-yl)-3-(6-methyl-2-phenylpyridin-3-yl)urea]
17 | ≤ 0.05 | Cc1nnc(CNC(=O)c2nc(-c3ccccc3)c(NC(=O)N[C@@H]3c4cc(F)c(F)cc4C(C)(C)C[C@H]3O)cc2C)o1 (racemic) [Compound 41, rac-5-(3-((1R,2R)-6,7-difluoro-2-hydroxy-4,4-dimethyl-1,2,3,4-tetrahydronaphthalen-1-yl)ureido)-3-methyl-N-((5-methyl-1,3,4-oxadiazol-2-yl)methyl)-6-phenylpicolinamide]
18 | ≤ 0.05 | Cc1cc(NC(=O)N[C@@H]2c3cc(F)c(F)cc3C(C)(C)C[C@H]2O)c(-c2ccccc2)nc1C(=O)NCC(C)(C)O (racemic) [Compound 42, rac-5-(3-((1R,2R)-6,7-difluoro-2-hydroxy-4,4-dimethyl-1,2,3,4-tetrahydronaphthalen-1-yl)ureido)-N-(2-hydroxy-2-methylpropyl)-3-methyl-6-phenylpicolinamide]
19 | ≤ 0.05 | Cc1ncc(-c2nc(-c3ccccc3)c(NC(=O)N[C@@H]3c4cc(F)c(F)cc4C(C)(C)C[C@H]3O)cc2C)cn1 (racemic) [Compound 44, rac-1-((1R,2R)-6,7-difluoro-2-hydroxy-4,4-dimethyl-1,2,3,4-tetrahydronaphthalen-1-yl)-3-(5-methyl-6-(2-methylpyrimidin-5-yl)-2-phenylpyridin-3-yl)urea]
20 | ≤ 0.05 | Cc1ncc(-c2nc(-c3ccccc3)c(NC(=O)N[C@@H]3c4cc(F)c(F)cc4C(C)(C)C[C@H]3O)cc2C)cn1 (racemic) [Compound 44a]
21 | ≤ 0.05 | Cc1cc(NC(=O)N[C@@H]2c3cc(F)c(F)cc3C(C)(C)C[C@H]2O)c(-c2ccccc2)nc1-c1cccc(CO)c1 (racemic) [Compound 46, rac-1-((1R,2R)-6,7-difluoro-2-hydroxy-4,4-dimethyl-1,2,3,4-tetrahydronaphthalen-1-yl)-3-(6-(3-(hydroxymethyl)phenyl)-5-methyl-2-phenylpyridin-3-yl)urea]
22 | 0.05 to 1 | Cc1ncc(-c2nc(-c3ccccc3)c(NC(=O)N[C@@H]3c4cc(F)c(F)cc4C(C)(C)C[C@H]3O)cc2C)s1 (racemic) [Compound 50, rac-1-((1R,2R)-6,7-difluoro-2-hydroxy-4,4-dimethyl-1,2,3,4-tetrahydronaphthalen-1-yl)-3-(5-methyl-6-(2-methylthiazol-5-yl)-2-phenylpyridin-3-yl)urea]
23 | ≤ 0.05 | Cc1cc(NC(=O)N[C@@H]2c3cc(F)c(F)cc3C(C)(C)C[C@H]2O)c(-c2ccccc2)nc1-c1cn[nH]c1 (racemic) [Compound 53, rac-1-((1R,2R)-6,7-difluoro-2-hydroxy-4,4-dimethyl-1,2,3,4-tetrahydronaphthalen-1-yl)-3-(5-methyl-2-phenyl-6-(1H-pyrazol-4-yl)pyridin-3-yl)urea]
24 | 0.05 to 1 | Cc1cnc(C2CCOCC2)c(NC(=O)N[C@@H]2c3cc(F)c(F)cc3C(C)(C)C[C@H]2O)c1 (racemic) [Compound 57, rac-1-((1R,2R)-6,7-difluoro-2-hydroxy-4,4-dimethyl-1,2,3,4-tetrahydronaphthalen-1-yl)-3-(5-methyl-2-(tetrahydro-2H-pyran-4-yl)pyridin-3-yl)urea]
25 | 0.05 to 1 | Cc1cc(NC(=O)N[C@@H]2c3cc(F)c(F)cc3C(C)(C)C[C@H]2O)c(C2CCOCC2)nc1C(N)=O (racemic) [Compound 58, rac-5-(3-((1R,2R)-6,7-difluoro-2-hydroxy-4,4-dimethyl-1,2,3,4-tetrahydronaphthalen-1-yl)ureido)-3-methyl-6-(tetrahydro-2H-pyran-4-yl)picolinamide]
